Test results from patent US12576107B2, “Methods of treating chronic inflammatory diseases” (METIMEDI PHARMACEUTICALS CO., LTD., priority 2018, dated 2026).

Legend:
[1] = tested on: hypoxia inducible factor-1α (HIF-1α); assay: Liver fibrosis in vitro experiment, Western blot in LX-2 cells; type: cell-based; details: 2.5 mM, LX-2 cells (human hepatic stellate cell)
Method: Human Hepatic Stellate cell line, LX-2, was purchased from Sigma-Aldrich (St Louis, MO, USA). The LX-2 cells were maintained in DMEM containing 2% fetal bovine serum (Life Technologies, Gaithersburg, MD, USA), 100 IU/ml penicillin, and 100 μg/ml streptomycin (Welgene, Daegu, South Korea).
(§1) To prepare whole cell lysate, cells were lysed with lysis buffer (1% NP-40, 0.25% sodium deoxycholate, 150 mM NaCl, 1 mM EDTA, 1% Triton X-100, 50 mM Tris-HCl (pH 7.4), 10% Glycerol) with protease inhibitor cocktail (Roche, Basel, Switzerland) and phosphatase inhibitors (NA3VO4 1 mM, NaF 100 mM). Then, protein concentration was measured using the Bicinchoninic acid (BCA) assay kit (Thermo Scientific, Waltham, MA). Whole cell or nuclear lysates were transferred onto polyvinylidene fluoride membranes (Merck Millipore, Billerica, MA, USA). After blocking in 5% non-fat milk (Bio-Rad, Hercules, CA, USA) for 1 h, the membranes were incubated overnight at 4° C. with primary antibody diluted in TBST containing 100 mM Tris-HCl (pH 7.5), 1.5 M NaCl, and 0.5% Tween-20 obtained from Sigma-Aldrich, to which 5% BSA and 0.1% sodium azide (Sigma-Aldrich) had been added. Specific primary antibodies to HIF-1α (1:1000), HIF-2α (1:1000), LDH-A (1:1000), LDH-B (1:1000), TLR-4 (1:1000), NF-κB (1:1000), VEGF (1:1000), α-tubulin (1:1000), Actin (1:1000), and GAPDH (1:5000). […]

lactate dehydrogenase B = assay: Human fibroblast in vitro experiment, Western blot in CCD-18Co cells; type: cell-based; details: 2.5 mM; CCD-18Co cells (human colon fibroblast); hypoxia
Method: (§2) Human Colon Fibroblast cell line, CCD-18-Co, was purchased from American Type Culture Collection (Manassas, VA, USA). The CCD-18Co cells were maintained in DMEM containing 10% fetal bovine serum (Life Technologies, Gaithersburg, MD, USA), 100 IU/ml penicillin, and 100 μg/ml streptomycin (Welgene, Daegu, South Korea).
as §1

Apolipoprotein E = assay: Immunocytochemistry of drusen marker Apolipoprotein E in ARPE-19 cells; type: cell-based, Human; details: 2.5 mM, hypoxia
Method: as §2, with “retinal pigment epithelium” for “Colon Fibroblast”, “ARPE-19,” for “CCD-18-Co,”, “ARPE-19” for “CCD-18Co”, “RPMI1640” for “DMEM”
ARPE-19 and SK-N-SH cells were fixed on bio-coated coverslips (BD bioscience, San Jose, CA, USA) by 4% PFA for 20 min and then incubated with the primary antibodies for 15 h. The primary antibodies were as follows: HIF-1a (1:300, BD Biosciences, San Jose, CA, USA); LDH-A (1:300, Santa Cruz Biotechnology, Santa Cruz, CA, USA); LDH-B (1:300, Santa Cruz Biotechnology, Santa Cruz, CA, USA); NF-κB (1:300, Santa Cruz Biotechnology, Santa Cruz, CA, USA); TLR-4 (1:300, Santa Cruz Biotechnology, Santa Cruz, CA, USA); apoE (1:200, Santa Cruz Biotechnology, Santa Cruz, CA, USA). After PBS wash, the cells were incubated with anti-mouse secondary biotinylated antibody (1:2000, Vector Laboratorie, Burlingame, CA, USA) and visualized with streptavidin conjugated to Fluorescein (Vector Laboratorie, Burlingame, CA, USA). […] Confocal fluorescence images were obtained with confocal laser scanning microscopy (LSCM, Nikon A1+, Tokyo, Japan) under a 60× oil immersion lens.

[2] = tested on: High cholesterol diet supplied ApoE-deficient mice (Atherosclerosis); assay: Vascular disease (atherosclerosis) model, high fat diet ApoE-deficient mice; type: in vivo, BALB/c ApoE^shi mice
Method: Animals. […] Fibe-week old male BALB/c ApoE^shi mice were obtained from Japan SLC Inc. (Shizuoka, Japan) and bred under specific-pathogen-free (SPF) conditions. All animals were maintained in a 12-hour light/dark cycle at 22-25° C. with free access to food and water.
Calcium lactate was purchased from Sigma Aldrich (St. Louis, MO, USA).
Animal model for vascular disease. BALB/c ApoE^shi species is used for spontaneous induction of vascular disease. In this investigation, a high fat (40%) diet was provided for 4 weeks to induce strong atherosclerosis.
Histological analysis. The thoracic aorta was transected, and a half of the aorta was fixed in 10% neutral buffer formalin fixative solution. Then, histological analysis was performed. Histological analysis was performed with H&E and Oil red O staining. Aortic wall thickness, atherosclerotic plaque areas, foam cell numbers, and lipidated regions were analyzed.
Statistical analysis. Statistical analysis was performed using SPSS statistics, and the results were analyzed using Student t-test. Histologic analysis was performed using the Mann-Whitney method. P<0.05 was considered statistically significant.

[3] = tested on: Indomethacin-induced Crohn's disease rats; assay: Crohn's disease model, oral Indomethacin; type: in vivo, Sprague-Dawley (SD) rats; details: Four-week after treatment
Method: Animals. […] Six-week old male Sprague-Dawley (SD) rats were obtained from Samtako Co. (Osan, Gyeonggi-do, Republic of Korea) and bred under specific-pathogen-free (SPF) conditions. All animals were maintained in a 12-hour light/dark cycle at 22-25° C. with free access to food and water.
Agents and animal model. To induce Crohn's disease and colitis, Indomethacin was purchased from Sigma Chemical (St. Louis, Missouri, USA) and was dissolved in saline. […] Two models of inflammatory bowel disease were used. Crohn's disease was induced by oral administration of Indomethacin (7 mg/kg), and colitis was induced by subcutaneous injections of Indomethacin (7 mg/kg) daily at a 24 h intervals (FIGS. 40 and 42).
Histological analysis. The fixed flat-mounts were dehydrated in a graded series of ethanol and embedded in paraffin.

[4] = 2 mg/kg daily subcutaneous, male ApoE-deficient mice, mean ± S.E.M.
[5] = male ApoE-deficient mice, n = 8, mean ± S.E.M.

## CC(O)C(=O)[O-].CC(O)C(=O)[O-].[Ca+2] (stereo not drawn) [calcium lactate]
[1]
  hypoxia inducible factor-1α (HIF-1α), Western blot: decreased
Lactate dehydrogenase B
  lactate dehydrogenase B, Western blot: increased
Apolipoprotein E
  drusen marker (Apolipoprotein E), immunocytochemistry: decreased
[2]; [4]
  ATHEROSCLEROTIC PLAQUE AREAS: 0.10 ± 0.03^++ mm^2
  FOAM CELL NUMBERS: 39.00 ± 10.13^+ cells/mm^2
  LIPID DEPOSITED REGIONS: 0.09 ± 0.03^++ mm^2
  MEAN AORTA WALL THICKNESS: 85.83 ± 8.70^+ μm
[2]; ApoE-deficient mice
  atherosclerotic lesions of aorta (H&E, oil red O): decreased
[2]; ApoE-deficient mice, blood
  pathogenic factors cholesterol (TCHO), LDL cholesterol (LDL), triglycerides (TG), HDL-cholesterol (HDL): not controlled
[2]; [5]
  HDL (clinical blood biochemistry): 197.2 ± 3.7 mg/dL
  LDL (clinical blood biochemistry): 1537.1 ± 14.2 mg/dL
  TCHO (clinical blood biochemistry): 2328.0 ± 56.7 mg/dL
  TG (clinical blood biochemistry): 54.8 ± 2.8 mg/dL
[3]; 2 mg/kg daily subcutaneous
  transmural inflammation and linear ulceration in the intestinal tissues: clearly decreased
[3]
  morphology of intestinal tissues vs. normal control: morphologically recovered
